Reference: US4788188A, “Quinolylglycinamide derivatives, the process for preparation thereof and their therapeutic application as psychotropic drugs” (Sanofi (S.A.), priority 1985, dated 1988)
Read-outs that look alike come from different tables or passages of the source.

Legend:
[1] = Hypnotic activity (method of JANSEN); assay type: in vivo, mice; conditions: 95% confidence interval (FINNEY); for ED50: Mus musculus, ip, read-out: 50% hypnotic dose (confidence interval)
Experimental: The hypnotic activity of the compounds of the present invention was assessed by the method of JANSEN (J. Med. Pharm. Chem., 1959, 1, 281).
After treatment i.p., each mouse is carefully placed on its back. […] In each batch (10 mice per dose), the percentage of sleeping animals is noted. The 50% hypnotic dose and its 95% confidence interval were calculated according to FINNEY's (1971) method.

[2] = Hypnotic activity (method of JANSEN); assay type: in vivo, mice; conditions: 95% confidence interval (FINNEY); for 50% hypnotic dose (confidence interval): i.v.; for ED50: Mus musculus, iv, read-out: 50% hypnotic dose (confidence interval)
benzodiazepine receptors = experiment: Affinity for benzodiazepine receptors: inhibition of specific binding of [3H]flunitrazepam (WASTEK et al., modified); design: species or system rats; conditions: 50% inhibition of specific binding of [3H]flunitrazepam, rat brain membranes
Experimental: This study was performed according to the technique of WASTEK et al., (Europ. J. Pharmacol., 1978, 50, 445-447) slightly modified.
Rats are sacrificed by decapitation, and the brain is removed, ground, suspended, centrifuged and resuspended.
Samples of this suspension are incubated in the presence of [^3 H]flunitrazepam, alone or in the presence of increasing concentrations of the test compound.
The radioactivity bound on the membranes is then determined by liquid scintillation.
The concentration of product which 50% inhibits the specific binding of [^3 H]flunitrazepam (IC50) is thereby determined.

pentetrazole seizures = experiment: Anticonvulsant activity: protection against pentetrazole seizures (EVERETT and RICHARDS); assay type: in vivo, mice; conditions: Mus musculus, po, 0.5 h, pentetrazole 125 mg/kg subcutaneously, no tonic seizures during 30 minutes, 95% confidence limits (FINNEY), read-out: ED50 (Confidence interval)
Experimental: The protective effect produced by the compound of the inventon against pentetrazole seizures was studied.
This test was carried out according to the method of EVERETT and RICHARDS (J. Pharm. Exp. Ther., 1944, 81, 402-407). The test products and reference products were administered orally (suspended in gum arabic) to batches of 10 mice, 30 minutes […] pentetrazole (125 mg/kg subcutaneously).

food neophobia = experiment: Anxiolytic activity: food neophobia test; assay type: in vivo, mice; conditions: 30 minutes after treatment
Experimental: This activity was studied by the food neophobia test. In effect, a pronounced inhibition of the feed intake can be obtained in mice when both the food and the enclosure are unfamiliar to the aninal (R. J. STEPHENS, Brit. J. Pharmacol., 1973, 47, 145 P). All anxiolytics specifically counteract neophobia phenomena.
30 minutes after oral or subcutaneous treatment with the test derivatives and the reference products, the mice, fasted for 16 to 20 hours, are isolated in a translucent enclosure and placed in the presence of an unfamiliar food for 5 minutes.
The amounts consumed are evaluated in proportion to the weight of the animal.
In each batch, the mean consumption and also the percentage variation relative to the control batch are calculated in this manner.

[3] = Acute toxicity in mice (oral); conditions: mouse, in vivo, oral administration
From the text: The acute, chronic, sub-chronic and delayed toxicities were dealt with in this study. Performed on various animal species, the trials brought out the low toxicity and good tolerability of the derivatives of the invention.

[4] = comparison, L. PIERI et al., Arzneim. Forsch., 1981; route not given; cited from earlier work

Structure (SMILES) | IC50 (benzodiazepine receptors) | ED50 (pentetrazole seizures) | other results
CCCN(CCC)C(=O)CNc1c(C(=O)OCC)cnc2ccc(Cl)cc12 [12 (Phosphate)] | – | – | ED50 [1]: 38 mg/kg; 50% hypnotic dose (confidence interval) [2]: 2 (1-4) mg/kg
CCCN(CCC)C(=O)CNc1c(C(=O)OCC)cnc2ccc(Cl)cc12 [12 (Sulphate)] | – | – | 50% hypnotic dose (confidence interval) ([1]; i.p.): 30 (14-39) mg/kg; 50% hypnotic dose (confidence interval) [2]: 6 (4-15) mg/kg
CNC1=Nc2ccc(Cl)cc2C(c2ccccc2)=[N+]([O-])C1 [Chlordiazepoxide, chlordiazepoxide, reference compound] | 950 nM | 7 mg/kg | Percentage increase (food consumption relative to control batch) (food neophobia; dose 16 mg/kg, PO): 73%
CCOC(=O)c1cnc2ccc(Cl)cc2c1NCC(=O)N(CC)CC [Derivative 1, 2-(3-Ethoxycarbonyl-6-chloro-4-quinolyl)amino-N,N-diethylacetamide] | 85 nM | 49 mg/kg | LD50 [3]: 1800 mg/kg
CCOC(=O)c1cnc2ccc(OC)cc2c1NCC(=O)N(CC)CC [Derivative 3, 2-(3-Ethoxycarbonyl-6-methoxy-4-quinolyl)amino-N,N-diethylacetamide] | 55 nM | – | LD50 [3]: 1650 mg/kg; ED50 [1]: 27 mg/kg; ED50 [2]: 7 mg/kg
CCOC(=O)c1cnc2ccc(C(F)(F)F)cc2c1NCC(=O)N(CC)CC [Derivative 4, 2-(3-Ethoxycarbonyl-6-trifluoromethyl-4-quinolyl)amino-N,N-diethylacetamide] | 97 nM | – | ED50 [1]: 27 mg/kg; ED50 [2]: 5 mg/kg
CCOC(=O)c1cnc2ccc([N+](=O)[O-])cc2c1NCC(=O)N(CC)CC [Derivative 5, 2-(3-Ethoxycarbonyl-6-nitro-4-quinolyl)amino-N,N-diethylacetamide] | 97 nM | 50 mg/kg | ED50 [1]: 25 mg/kg; ED50 [2]: 9 mg/kg
CCOC(=O)c1cnc2ccc(OCC)cc2c1NCC(=O)N(CC)CC [Derivative 8] | 133 nM | – | ED50 [1]: 18 mg/kg; ED50 [2]: 5 mg/kg
CCCN(CCC)C(=O)CNc1c(C(=O)OCC)cnc2ccc(Cl)cc12 [Derivative 12, 2-(3-Ethoxycarbonyl-6-chloro-4-quinolyl)amino-N,N-dipropylacetamide] | 16 nM | 10 mg/kg | Percentage increase (food consumption relative to control batch) (food neophobia; dose 32 mg/kg, PO): 75%
CCCN(CCC)C(=O)CNc1c(C(=O)OCC)cnc2ccc(C)cc12.Cl [Derivative 13, 2-(3-Ethoxycarbonyl-6-methyl-4-quinolyl)amino-N,N-dipropylacetamide hydrochloride] | 25 nM | 25 mg/kg | Percentage increase (food consumption relative to control batch) (food neophobia; dose 16 mg/kg, PO): 75%
CCCN(CCC)C(=O)CNc1c(C(=O)OCC)cnc2ccc(OC)cc12 [Derivative 14, 2-(3-Ethoxycarbonyl-6-methoxy-4-quinolyl)amino-N,N-dipropylacetamide] | 17 nM | 40 mg/kg | ED50 [1]: 25 mg/kg; ED50 [2]: 5 mg/kg
CCCN(CCC)C(=O)CNc1c(C(=O)OCC)cnc2ccc(Br)cc12 [Derivative 17, 2-(3-Ethoxycarbonyl-6-bromo-4-quinolyl)amino-N,N-dipropylacetamide] | 8 nM | 18 mg/kg | Percentage increase (food consumption relative to control batch) (food neophobia; dose 32 mg/kg, SC): 75%
CCOC(=O)c1cnc2ccc(Cl)cc2c1NCC(=O)N1CCCC1 [Derivative 26, 1-{2-[(3-Ethoxycarbonyl-6-chloro-4-quinolyl)amino]acetyl}pyrrolidine] | 333 nM | 50 mg/kg | –
CCOC(=O)c1cnc2ccc(Cl)cc2c1NCC(=O)N(C)C [Derivative 29, 2-(3-Ethoxycarbonyl-6-chloro-4-quinolyl)amino-N,N-dimethylacetamide] | 687 nM | 38 mg/kg | –
CCOC(=O)c1cnc2ccc(OCC)cc2c1NCC(=O)N1CCCCC1 [Derivative 33, 1-{2-[(3-Ethoxycarbonyl-6-ethoxy-4-quinolyl)amino]acetyl}piperidine] | 54 nM | – | ED50 [1]: 15 mg/kg; ED50 [2]: 5 mg/kg
CCOC(=O)c1cnc2ccc(Cl)cc2c1NCC(=O)N1CCCC(C)C1 (centres unmarked) [Derivative 38, 1-{2-[(3-Ethoxycarbonyl-6-chloro-4-quinolyl)amino]acetyl}-3-methylpiperidine] | 65 nM | 46 mg/kg | ED50 [1]: 28 mg/kg; ED50 [2]: 9 mg/kg
CCOC(=O)c1cnc2ccc(Cl)cc2c1NCC(=O)NC [Derivative 41, 2-(3-Ethoxycarbonyl-6-chloro-4-quinolyl)amino-N-methylacetamide] | 440 nM | 46 mg/kg | –
CCN(CC)C(=O)CNc1c(C(=O)O)cnc2ccc(Cl)cc12 [Derivative 43, 2-(3-Carboxy-6-chloro-4-quinolyl)amino-N,N-diethylacetamide] | 7 nM | – | LD50 [3]: 2200 mg/kg; Percentage increase (food consumption relative to control batch) (food neophobia; dose 64 mg/kg, SC): 75%
CCN(CC)C(=O)CNc1c(C(=O)O)cnc2ccc(C)cc12 [Derivative 44, 2-(3-Carboxy-6-methyl-4-quinolyl)amino-N,N-diethylacetamide] | 46 nM | – | Percentage increase (food consumption relative to control batch) (food neophobia; dose 32 mg/kg, SC): 50%
CCCN(CCC)C(=O)CNc1c(C(=O)O)cnc2ccc(Cl)cc12 [Derivative 46, 2-(3-Carboxy-6-chloro-4-quinolyl)amino-N,N-dipropylacetamide] | 1 nM | – | Percentage increase (food consumption relative to control batch) (food neophobia; dose 16 mg/kg, SC): 75%
CCCCOC(=O)c1cnc2ccc(Cl)cc2c1NCC(=O)N(CC)CC [Derivative 49, 2-(3-Butoxycarbonyl-6-chloro-4-quinolyl)amino-N,N-diethylacetamide] | 61 nM | 54 mg/kg | –
CCCN(CCC)C(=O)CN(C)c1c(C(=O)OCc2ccccc2)cnc2ccc(Cl)cc12 [Derivative 52, [N'-(3-Benzyloxycarbonyl-6-chloro-4-quinolyl)-N'-methylamino]-N,N-dipropylacetamide] | 727 nM | 31 mg/kg | –
CCOC(=O)c1cnc2ccc(Cl)cc2c1N(C)CC(=O)N(CC)CC [Derivative 58, [N'-(3-Ethoxycarbonyl-6-chloro-4-quinolyl)-N'-methylamino]-N,N-diethylacetamide] | – | 44 mg/kg | Percentage increase (food consumption relative to control batch) (food neophobia; dose 64 mg/kg, SC): 80%
CCCN(CCC)C(=O)CN(C)c1c(C(=O)OCC)cnc2ccc(Cl)cc12 [Derivative 59, [N'-(3-Ethoxycarbonyl-6-chloro-4-quinolyl)-N'-methylamino]-N,N-dipropylacetamide] | – | 16 mg/kg | Percentage increase (food consumption relative to control batch) (food neophobia; dose 32 mg/kg, PO): 146%
CN1C(=O)CN=C(c2ccccc2)c2cc(Cl)ccc21 [Diazepam, diazepam, reference compound] | 10 nM | – | Percentage increase (food consumption relative to control batch) (food neophobia; dose 4 mg/kg, PO): 80%
CCCC(C)(COC(N)=O)COC(N)=O [Meprobamate, reference compound] | – | 36 mg/kg | Percentage increase (food consumption relative to control batch) (food neophobia; dose 60 mg/kg, PO): 95%
Cc1ncc2n1-c1ccc(Cl)cc1C(c1ccccc1F)=NC2 [midazolam] | – | – | 50% hypnotic dose [4]: 23 mg/kg
CCCC(C)C1(CC)C(=O)NC(=S)NC1=O (centres unmarked) [thiopental sodium] | – | – | 50% hypnotic dose [4]: 17 mg/kg
